According to patent US20230310813A1, “DIMERIC NAPHTHALIMIDE COATING” (ALUCENT BIOMEDICAL, INC., priority 2020, published 2023):
Values joined by “and” are separate entries in the source; they are usually repeats but may differ in a detail not shown here. Identical values can stand only once. “Also recorded” adds a separate entry of the source.

Assays:
Assay type in all cases: physicochemical
[1] = 10-8-10 stability over 8 hours in solvent systems
Experimental: The purity of a composition was analyzed by UPLC or HPLC.
(§1) The non-limiting exemplary and comparative solvent systems listed in Table 1 were prepared by combining the components of the solvent system at the indicated concentrations. The resulting mixture was then mixed at room temperature until a colorless, clear mixture was obtained. Compound of Formula (I) was then added in the indicated amount and the resulting mixture was mixed at room temperature until a yellow/orange translucent mixture was obtained.

[2] = Solubility of Compound of Formula (I) in solvent systems
Experimental: as §1
(§2) The solubility and stability of solvent systems were determined.

[3] = Storage stability in solvent systems
Experimental: as §2

[4] = Stability of coated balloon coating after sterilization (UPLC/HPLC)
Experimental: A solvent system was prepared by combining ethanol and water and acetic acid in a volume ratio of 89.5:10:0.5. The resulting mixture was then mixed at room temperature until a colorless, clear mixture was obtained. Compound of Formula (I) was then added in the indicated amount and the resulting mixture was mixed at room temperature until a yellow/orange translucent mixture was obtained. This mixture was applied to a 5 mm×60 mm balloon by a pipetting method. The coated balloon was then dried to evaporate the solvent. A coated balloon with a coating thickness of 10 μg/mm^2 was obtained. The calculated amount of Compound of Formula (I) on the coated balloon was 7759 μg.
Coated balloons from Example 3 were sterilized either by ethylene oxide sterilization (EO), gamma sterilization (Gamma) or electron beam sterilization (E-Beam). A group of control balloons was left untreated (Control). After sterilization, a sample of the coating on each of the coated balloons was removed and analyzed.

[5] = Stability of coated balloon in reduced oxygen and reduced moisture packaging; settings: coated balloon stored in reduced oxygen and reduced moisture packaging
Experimental: Packaged coated balloons were prepared as follows. A coated balloon from Example 3 was placed in a foil pouch. The concentration of oxygen within the foil pouch was reduced by purging with nitrogen. A desiccant was added to the foil pouch before sealing the oxygen-purged foil pouch comprising the coated balloon and the desiccant.
At various time points after packaging, a coated balloon was taken out of its packaging. A sample of the coating on the coated balloon was removed and analyzed.

[6] = Room temperature stability of coated balloons; settings: for amount of main impurity by LC / formation of impurities over time: 25° C., 60% RH, 0-24 months
Experimental: Angioplasty balloons coated with the Compound of Formula (I) (“10-8-10 compound”) were tested for their stability at 25° C. over a period of 0, 3, 6, and 12 months. The products described in Table 4 were placed in storage at 25° C.
Samples of each article were taken after 0, 3, 6, 12, 18 and 24 months of storage at 25° C., 60% RH.

[7] = coated balloon after electron beam sterilization (E-Beam)
[8] = coated balloon after ethylene oxide sterilization (EO)
[9] = coated balloon after gamma sterilization (Gamma)
[10] = coated balloon, Control (not sterilized)

For `NCCOCCOCCNc1ccc2c3c(cccc13)C(=O)N(CCOCCOCCN1C(=O)c3cccc4c(NCCOCCOCCN)ccc(c34)C1=O)C2=O` [Compound of Formula (I), 2,2′-((ethane-1,2-diylbis(oxy))bis(ethane-2,1-diyl))bis(6-((2-(2-(2-aminoethoxy)ethoxy)ethyl)amino)-1H-benzo[de]isoquinoline-1,3(2H)-dione)], the “10-8-10 stability over 8 hours” value ([1]; solvent system 89.5% Ethanol/10% water/0.5% acetic acid) was “✓”, the “10-8-10 stability over 8 hours” value ([1]; solvent system 99.5% Ethanol/0.5% acetic acid) was “✓” and the “10-8-10 stability over 8 hours” value ([1]; solvent system Ethanol/IPA) was “✓”. For the same compound, the degradation ([1]; solvent system comprising ethanol, water, and acetic acid) was “does not degrade appreciably”, the “Solubility >2% w/w” value ([2]; Table 1, solvent system 89.5% Ethanol/10% water/0.5% acetic acid) was “✓” and the “Solubility >2% w/w” value ([2]; Table 1, solvent system 99% Ethanol/1% Acetone) was “✓”. The “Solubility >2% w/w” value ([2]; Table 1, solvent system Ethanol/Acetone/BHT) was “✓”, the “Solubility >2% w/w” value ([2]; Table 1, solvent system Ethanol/MEK) was “✓” and the “Solubility >2% w/w” value ([2]; Table 2, EtOH/Acetic Acid (99.5:0.5)) was “✓”. The “Solubility >2% w/w” value ([2]; Table 2, EtOH/Water (90:10)) was “✓”, the “Solubility >2% w/w” value ([2]; Table 2, EtOH/Water (98:2)) was “✓” and the “Solubility >2% w/w” value ([2]; Table 2, EtOH/Water/Acetic Acid (89.5:10:0.5)) was “✓”. The “Solubility >2% w/w” value ([2]; Table 2, EtOH/Water/Acetic Acid (99.4:0.5:0.1)) was “✓”, the Storage stability ([3]; EtOH/Water (90:10)) was “✓” and the Storage stability ([3]; EtOH/Water/Acetic Acid (89.5:10:0.5)) was “✓”. For the same compound, the solubility and stability ([3]; ethanol, water, acetic acid (89.5:10:0.5) solvent system) was “exhibited both solubility and stability”, the solubility and stability ([3]; ethanol/water (90:10) solvent system) was “exhibited both solubility and stability” and the “change in impurity concentration” value ([4]; coated article after radiation sterilization (gamma irradiation, electron beam)) was “No change or minimal increase; also recorded: minimal increase”. The degradation ([4]; coated article subjected to ethylene oxide sterilization) was “degrades appreciably”, the “Compound of Formula (I) (HPLC area-%)” value [4, 7] was 98.22 HPLC area-% and 98.33 HPLC area-% and 98.37 HPLC area-% and the “Total impurities (HPLC area-%)” value [4, 7] was 1.78 HPLC area-% and 1.67 HPLC area-% and 1.63 HPLC area-%. The “Compound of Formula (I) (HPLC area-%)” value [4, 8] was 94.75 HPLC area-% and 94.26 HPLC area-% and 94.35 HPLC area-%, the “Total impurities (HPLC area-%)” value [4, 8] was 5.25 HPLC area-% and 5.74 HPLC area-% and 5.65 HPLC area-% and the “Compound of Formula (I) (HPLC area-%)” value [4, 9] was 98.32 HPLC area-% and 98.37 HPLC area-% and 98.28 HPLC area-%. The “Total impurities (HPLC area-%)” value [4, 9] was 1.68 HPLC area-% and 1.63 HPLC area-% and 1.72 HPLC area-%, the “Compound of Formula (I) (HPLC area-%)” value [4, 10] was 98.33 HPLC area-% and 98.32 HPLC area-% and the “Total impurities (HPLC area-%)” value [4, 10] was 1.67 HPLC area-% and 1.68 HPLC area-%. For the same compound, the “increase in impurity concentration” value [5] was “minimal”, the degradation ([6]; coated article stored at room temperature) was “degrades appreciably” and the “degradation rate over time at room temperature” value ([6]; coating further comprising at least one antioxidant) was “reduced”. The “amount of main impurity by LC / formation of impurities over time” value ([6]; coating with BHT vs coating of only Compound of Formula (I)) was “lower amounts; also recorded: reduction” and the “amount of main impurity by LC / formation of impurities over time” value ([6]; coating with tromethamine vs coating of only Compound of Formula (I)) was “lower amounts; also recorded: reduction”.
